Results reported in US20260294839A1, “COMPOSITION AND METHOD OF MAKING” (priority 2023, published 2026).
Where two headings read alike, the source gives them in different places.

Columns and labels:
[1] = if it accumulates excessively at the wound site; cited from earlier work
[2] = test system: Staphylococcus aureus; experiment: Non-peroxide activity (NPA) plate assay with catalase; assay type: cell-based; conditions: duplicate or triplicate mean; invention sample 1 fresh, 2-5 stored 234 days (37° C., room temperature, fridge, freezer)
Procedure: In this test, the enzyme catalase was added to the sample to rapidly break down hydrogen peroxide to water and oxygen. […] The test was carried out using a Gram-positive bacteria, Staphylococcus aureus. The result is a value in % w/v relative to phenol standards. Two honey samples and several control samples consisting of glycerol with additional components were tested alongside the composition of the invention samples and the results are shown in Table 4. Samples were run in duplicate or triplicate and the mean result calculated.
[…] of the composition of the invention were tested: • Sample 1: a freshly made sample • Sample 2: stored for 234 days in a 37° C. incubator • Sample 3: stored for 234 days at room temperature • Sample 4: stored for 234 days in a fridge • Sample 5: stored for 234 days in a freezer
The NPA assay was used, as previously in Example 3.

[3] = test system: consortium of S. aureus, E. coli and P. aeruginosa; experiment: ISO 11930 preservative effectiveness, bacterial consortium; assay type: cell-based; conditions: for log reduction at 50 % v/v: 50.0% v/v aqueous; for log reduction at 5 % / log reduction at 15 % / log reduction at 50 % / Nx: diluted in aqueous solution; for log reduction at 5 % / log reduction at 15 % / log reduction at 50 %: read-out: Rx (log reduction)
Procedure: (§1) The ISO 11930 industry standard test was to used measure the effectiveness of the compound to act as a preservative (growth inhibition) for up to 28 days (as tested). Preservative action is used to prevent spoilage and contamination of food, cosmetics, and drugs. First, compositions of the invention were diluted in Glycerol (Tables 7 to 8).
(§2) Next, compositions of the invention were diluted in aqueous solution.
According to ISO 11930, compositions of the invention produced a log reduction of >4.14 logs at a concentration of 50.0% v/v, 15.0% v/v, and 5.0% v/v as tested after 7 days, 14 days and 28 days at 25° C. against a consortium of Staphylococcus aureus ATCC 6538, Escherichia coli NCTC 10536 and Pseudomonas aeruginosa ATCC 15442 (Table 9). […]

[4] = test system: consortium of C. albicans and A. brasiliensis; experiment: ISO 11930 preservative effectiveness, fungal consortium; assay type: cell-based; conditions: for log reduction at 5 % / log reduction at 15 % / log reduction at 50 % / Nx: diluted in aqueous solution; for log reduction at 5 % / log reduction at 15 % / log reduction at 50 %: read-out: Rx (log reduction)
Procedure: as §1, §2
Also according to ISO 11930, compositions of the invention produced a log reduction of >3.27 logs at a concentration of 50.0% v/v, 15.0% v/v, and 5.0% v/v as tested after 7 days, 14 days and 28 days at 25° C. against a consortium of Candida albicans ATCC 10231 and Aspergillus brasiliensis ATCC 16404 (Table 10). […]

[5] = ISO 11930, aqueous solution, 25° C.

[Ag] [Silver, silver]
effect on wound healing [1]: inhibit healing

OCC(O)CO [Glycerol, glycerol]
NPA, Mean Result [2]: <9.5 % w/v phenol equivalent | level at which it is a preservative, bacteria [3]: > 50.0 % V/V | log reduction at 50 % v/v ([3]; 14 days and 28 days, 25° C.): > 4.21 | log reduction at 50 % v/v ([3]; 168 h, 7 days, 25° C.): 3.67 | log reduction at 5 % ([3]; 168 h, 5% (V/V), day 7): < 2.84 | log reduction at 15 % ([3]; 168 h, 15% (V/V), day 7): < 2.84 | log reduction at 50 % ([3]; 168 h, 50% (V/V), day 7): 3.67 | log reduction at 5 % ([3]; 336 h, 5% (V/V), day 14): < 2.84 | log reduction at 15 % ([3]; 336 h, 15% (V/V), day 14): 3.28 | log reduction at 50 % ([3]; 336 h, 50% (V/V), day 14): > 4.21 | log reduction at 5 % ([3]; 672 h, 5% (V/V), day 28): < 2.84 | log reduction at 15 % ([3]; 672 h, 15% (V/V), day 28): > 4.21 | log reduction at 50 % ([3]; 672 h, 50% (V/V), day 28): > 4.21 | Preservation Criteria A for bacteria [3, 5]: conforms to Preservation Criteria A for bacteria | Nx ([3]; 5% (V/V), day 0): >3.30E+03 | Nx ([3]; 5% (V/V), day 7): >3.30E+03 | Nx ([3]; 5% (V/V), day 14): >3.30E+03 | Nx ([3]; 5% (V/V), day 28): >3.30E+03 | Nx ([3]; 15% (V/V), day 0): >3.30E+03 | Nx ([3]; 15% (V/V), day 7): >3.30E+03 | Nx ([3]; 15% (V/V), day 14): 1.20E+03 | Nx ([3]; 15% (V/V), day 28): <1.40E+02 | Nx ([3]; 50% (V/V), day 0): >3.30E+03 | Nx ([3]; 50% (V/V), day 7): 4.95E+02 | Nx ([3]; 50% (V/V), day 14): <1.40E+02 | Nx ([3]; 50% (V/V), day 28): <1.40E+02 | log reduction ([4]; 50.0%, 15.0%, 5.0% v/v, 7, 14 and 28 days, 25° C.): did not produce a measurable log reduction | log reduction at 5 % ([4]; 168 h, 5% (V/V), day 7): < 1.65 | log reduction at 15 % ([4]; 168 h, 15% (V/V), day 7): < 1.65 | log reduction at 50 % ([4]; 168 h, 50% (V/V), day 7): < 1.65 | log reduction at 5 % ([4]; 336 h, 5% (V/V), day 14): < 1.65 | log reduction at 15 % ([4]; 336 h, 15% (V/V), day 14): < 1.65 | log reduction at 50 % ([4]; 336 h, 50% (V/V), day 14): < 1.65 | log reduction at 5 % ([4]; 672 h, 5% (V/V), day 28): < 1.65 | log reduction at 15 % ([4]; 672 h, 15% (V/V), day 28): < 1.65 | log reduction at 50 % ([4]; 672 h, 50% (V/V), day 28): < 1.65 | Preservation Criteria A for fungi [4, 5]: does not conform to Preservation Criteria A for fungi | Nx ([4]; 5% (V/V), day 0): >3.30E+03 | Nx ([4]; 5% (V/V), day 7): >3.30E+03 | Nx ([4]; 5% (V/V), day 14): >3.30E+03 | Nx ([4]; 5% (V/V), day 28): >3.30E+03 | Nx ([4]; 15% (V/V), day 0): >3.30E+03 | Nx ([4]; 15% (V/V), day 7): >3.30E+03 | Nx ([4]; 15% (V/V), day 14): >3.30E+03 | Nx ([4]; 15% (V/V), day 28): >3.30E+03 | Nx ([4]; 50% (V/V), day 0): >3.30E+03 | Nx ([4]; 50% (V/V), day 7): >3.30E+03 | Nx ([4]; 50% (V/V), day 14): >3.30E+03 | Nx ([4]; 50% (V/V), day 28): >3.30E+03 | level at which it is a preservative, fungi ([4]; not tested, shows a fail at 50.0%): > 60.0%
